Results taken from US20180282331A1, “7-Oxo -6-(sulfooxy)- 1,6-diazabicyclo [3.2.1] octane containing compounds and their use in treatment of bacterial infections (changed by PCT to: 7-OXO -6-(SULFOOXY)- 1,6-DIAZABICYCLO [3.2.1] OCTANE CONTAINING COMPOUNDS AND THEIR USE IN TREATMENT OF BACTERIAL INFECTIONS” (WOCKHARDT LIMITED, priority 2015, published 2018).

Tests used:
Format in all cases: cell-based
E. coli 7 MP [1] = assay: MIC of Ceftazidime in combination with compound (4 mcg/ml), agar dilution; settings: Escherichia coli, Ceftazidime alone or with constant 4 mcg/ml of compound
Description: (§1) The biological activity of representative compounds according to the invention against various bacterial strains was investigated. The Minimum Inhibitory Concentration (MIC) determination for the combinations was carried out in Muller Hinton Agar (MHA) (BD, USA) according to Clinical and Laboratory Standards Institute (CLSI) recommendations, (Clinical and Laboratory Standards Institute (CLSI), Performance Standards for Antimicrobial Susceptibility Testing, 20th Informational Supplement, M 100-S20, Volume 30, No. 1, 2010). In short, the test strains were adjusted to deliver about 10^4 CFU per spot with a multipoint inoculator (Applied Quality Services, UK). The plates were poured with MHA containing doubling concentration range of representative compounds according to present invention. The plates were inoculated and were incubated at 35° C. for 18 hours. […] The Table 5 depicts the antibacterial activity profile of compounds according to present invention against various multidrug resistant bacterial strains.
(§2) The combinations of compounds according to present invention were also tested for their antibacterial activity in combination with Ceftazidime. The plates were poured with MHA containing doubling concentration range of Ceftazidime in combination with constant concentration (4 mcg/ml) of representative compounds of Formula (I).

E. coli M 50 [2] = assay: as above; settings: Escherichia coli, M50, Ceftazidime alone or with constant 4 mcg/ml of compound
Description: as §1, §2

E. coli NCTC 13352 [3] = assay: as above; settings: Escherichia coli, NCTC13352, Ceftazidime alone or with constant 4 mcg/ml of compound
Description: as §1, §2

E. coli NCTC 13353 [4] = assay: as above; settings: Escherichia coli, NCTC13353, Ceftazidime alone or with constant 4 mcg/ml of compound
Description: as §1, §2

[5] = tested on: K. pneumoniae ATCC 700603; assay: as above; settings: Klebsiella pneumoniae, ATCC700603, Ceftazidime alone or with constant 4 mcg/ml of compound
Description: as §1, §2

K. pneumoniae H521 [6] = assay: as above; settings: Klebsiella pneumoniae, Ceftazidime alone or with constant 4 mcg/ml of compound
Description: as §1, §2

K. pneumoniae H525 [7] = assay: as above; settings: Klebsiella pneumoniae, Ceftazidime alone or with constant 4 mcg/ml of compound
Description: as §1, §2

E. coli 7 MP [8] = assay: MIC, agar dilution (MHA), compound alone
Description: as §1

E. coli M 50 [9] = assay: MIC, agar dilution (MHA), compound alone
Description: as §1

E. coli NCTC 13352 [10] = assay: MIC, agar dilution (MHA), compound alone
Description: as §1

E. coli NCTC 13353 [11] = assay: MIC, agar dilution (MHA), compound alone
Description: as §1

[12] = tested on: K. pneumoniae ATCC 700603; assay: MIC, agar dilution (MHA), compound alone
Description: as §1

K. pneumoniae H521 [13] = assay: MIC, agar dilution (MHA), compound alone
Description: as §1

K. pneumoniae H525 [14] = assay: MIC, agar dilution (MHA), compound alone
Description: as §1

[15] = Escherichia coli, E. coli 7 MP, compound alone, MHA, 35° C., 18 hours, read-out: MIC
[16] = Escherichia coli, M50, E. coli M 50, compound alone, MHA, 35° C., 18 hours, read-out: MIC
[17] = Escherichia coli, NCTC13352, E. coli NCTC 13352, compound alone, MHA, 35° C., 18 hours, read-out: MIC
[18] = Escherichia coli, NCTC13353, E. coli NCTC 13353, compound alone, MHA, 35° C., 18 hours, read-out: MIC
[19] = Klebsiella pneumoniae, ATCC700603, K. pneumoniae ATCC 700603, compound alone, MHA, 35° C., 18 hours, read-out: MIC
[20] = Klebsiella pneumoniae, K. pneumoniae H521, compound alone, MHA, 35° C., 18 hours, read-out: MIC
[21] = Klebsiella pneumoniae, K. pneumoniae H525, compound alone, MHA, 35° C., 18 hours, read-out: MIC

| Compound | MIC (E. coli 7 MP [8]; [15]) [µg/mL] | MIC (E. coli M 50 [9]; [16]) [µg/mL] | MIC (E. coli NCTC 13352 [10]; [17]) [µg/mL] | MIC (E. coli NCTC 13353 [11]; [18]) [µg/mL] | MIC [12, 19] [µg/mL] | MIC (K. pneumoniae H521 [13]; [20]) [µg/mL] | MIC (K. pneumoniae H525 [14]; [21]) [µg/mL] | further results |
| --- | --- | --- | --- | --- | --- | --- | --- | --- |
| CC(C)(O/N=C(\C(=O)N[C@@H]1C(=O)N2C(C(=O)[O-])=C(C[n+]3ccccc3)CS[C@H]12)c1csc(N)n1)C(=O)O [Ceftazidime] |  |  |  |  |  |  |  | MIC (E. coli 7 MP [1]): > 32 µg/mL; MIC (E. coli M 50 [2]): > 32 µg/mL; MIC (E. coli NCTC 13352 [3]): 16 µg/mL; MIC (E. coli NCTC 13353 [4]): > 32 µg/mL; MIC [5]: 16 µg/mL; MIC (K. pneumoniae H521 [6]): > 32 µg/mL; MIC (K. pneumoniae H525 [7]): > 32 µg/mL |
| O=C(Cn1ccnc1COC(=O)[C@@H]1CCCN1)NNC(=O)[C@@H]1CC[C@@H]2CN1C(=O)N2OS(=O)(=O)O [Example 34] | 4 | 1 | 1 | 1 | > 32 | 2 | 1 |  |
| C[C@H](N)C(=O)OCc1nccn1CC(=O)NNC(=O)[C@@H]1CC[C@@H]2CN1C(=O)N2OS(=O)(=O)O [Example 35] | 4 | 1 | 1 | 1 | > 32 | 2 | 2 |  |
| Nc1ccn(CC(=O)NNC(=O)[C@@H]2CC[C@@H]3CN2C(=O)N3OS(=O)(=O)[O-])c(=O)n1.[Na+] [Example 37] |  |  |  |  |  |  |  | MIC (E. coli 7 MP [8]; Escherichia coli, 7MP, 18 h): 4 µg/mL; MIC (E. coli M 50 [9]; Escherichia coli, M50, 18 h): 1 µg/mL; MIC (E. coli NCTC 13352 [10]; Escherichia coli, NCTC13352, 18 h): 2 µg/mL; MIC (E. coli NCTC 13353 [11]; Escherichia coli, NCTC13353, 18 h): 1 µg/mL; MIC ([12]; Klebsiella pneumoniae, ATCC700603, 18 h): > 32 µg/mL; MIC (K. pneumoniae H521 [13]; Klebsiella pneumoniae, H521, 18 h): 4 µg/mL; MIC (K. pneumoniae H525 [14]; Klebsiella pneumoniae, H525, 18 h): 4 µg/mL |
| O=C(Cn1nnnc1CCO)NNC(=O)[C@@H]1CC[C@@H]2CN1C(=O)N2OS(=O)(=O)O.[Na] [Example 38, Sodium salt of (2S,5R)-N′-{[5-(2-hydroxyethyl)-1H-tetrazol-1-yl]acetyl}-7-oxo-6-(sulfooxy)-1,6-diazabicyclo[3.2.1]octane-2-carbohydrazide] |  |  |  |  |  |  |  | MIC (E. coli 7 MP [8]; E. coli 7 MP, compound alone, MHA, 35° C., 18 hours): 1 µg/mL; MIC (E. coli M 50 [9]; E. coli M 50, compound alone, MHA, 35° C., 18 hours): 0.25 µg/mL; MIC (E. coli NCTC 13352 [10]; E. coli NCTC 13352, compound alone, MHA, 35° C., 18 hours): 0.25 µg/mL; MIC (E. coli NCTC 13353 [11]; E. coli NCTC 13353, compound alone, MHA, 35° C., 18 hours): 0.25 µg/mL; MIC ([12]; K. pneumoniae ATCC 700603, compound alone, MHA, 35° C., 18 hours): >32 µg/mL; MIC (K. pneumoniae H521 [13]; K. pneumoniae H521, compound alone, MHA, 35° C., 18 hours): 0.5 µg/mL; MIC (K. pneumoniae H525 [14]; K. pneumoniae H525, compound alone, MHA, 35° C., 18 hours): 0.5 µg/mL |
| O=C(Cn1nnc(CCO)n1)NNC(=O)[C@@H]1CC[C@@H]2CN1C(=O)N2OS(=O)(=O)[O-].[Na+] [Example 39] | 1 | 0.5 | 0.5 | 0.5 | > 32 | 1 | 2 |  |
| O=C(Cn1ccnc1CCO)NNC(=O)[C@@H]1CC[C@@H]2CN1C(=O)N2OS(=O)(=O)[O-].[Na+] [Example 40] | 4 | 2 | 2 | 1 | > 32 | 4 | 2 |  |
| O=C(Cn1ccnc1CO)NNC(=O)[C@@H]1CC[C@@H]2CN1C(=O)N2OS(=O)(=O)[O-].[Na+] [Example 42] | 2 | 0.5 | 1 | 0.5 | > 32 | 2 | 1 |  |
| NCc1nnn(CCONC(=O)[C@@H]2CC[C@@H]3CN2C(=O)N3OS(=O)(=O)O)n1 [Example 44, (2S,5R)-N-{2-[5-(aminomethyl)-2H-tetrazol-2-yl]ethoxy}-7-oxo-6-(sulfooxy)-1,6-diazabicyclo[3.2.1]octane-2-carboxamide] | > 32 | > 32 | > 32 | > 32 | > 32 | > 32 | > 32 |  |
| NCCc1nnn(CCONC(=O)[C@@H]2CC[C@@H]3CN2C(=O)N3OS(=O)(=O)O)n1 [Example 46] | 32 | 4 | 8 | 4 | > 32 | 4 | 4 |  |
| O=C(NOCCn1ccnn1)[C@@H]1CC[C@@H]2CN1C(=O)N2OS(=O)(=O)O [Example 47] | 32 | 8 | 8 | 8 | > 32 | > 32 | > 32 |  |
| O=C(NOCCn1cncn1)[C@@H]1CC[C@@H]2CN1C(=O)N2OS(=O)(=O)O [Example 48] | > 32 | 8 | 16 | 8 | > 32 | > 32 | 32 |  |
| CCOC(=O)c1nnnn1CCONC(=O)[C@@H]1CC[C@@H]2CN1C(=O)N2OS(=O)(=O)[O-].[Na+] [Example 49] | > 32 | > 32 | > 32 | > 32 | > 32 | > 32 | > 32 |  |
| O=C(NOCCn1ncnn1)[C@@H]1CC[C@@H]2CN1C(=O)N2OS(=O)(=O)[O-].[Na+] [Example 50] | 32 | 8 | 8 | 8 | > 32 | > 32 | > 32 |  |
| O=C(NOCCn1cnnn1)[C@@H]1CC[C@@H]2CN1C(=O)N2OS(=O)(=O)[O-].[Na+] [Example 51] | 16 | 4 | 8 | 4 | > 32 | > 32 | > 32 |  |
| Cc1nnnn1CCONC(=O)[C@@H]1CC[C@@H]2CN1C(=O)N2OS(=O)(=O)[O-].[Na+] [Example 53] | 32 | > 32 | 8 | 4 | > 32 | 16 | 16 |  |
| O=C(NOCCn1nnc(CCO)n1)[C@@H]1CC[C@@H]2CN1C(=O)N2OS(=O)(=O)[O-].[Na+] [Example 55] | > 32 | 16 | 32 | 16 | > 32 | > 32 | > 32 |  |
| O=C(NOCCn1nnnc1CCO)[C@@H]1CC[C@@H]2CN1C(=O)N2OS(=O)(=O)[O-].[Na+] [Example 56] | > 32 | 4 | 8 | 4 | > 32 | 8 | 16 |  |
